Values of other authors in patent publication US20080311200A1, “Controlled Slow Release Formulation of Thiamine and Use Thereof in the Treatment of Pathologies Connected to Defective Process of Learning and Memorization” (BIOPROGRESS S.P.A., priority 2004, published 2008).

Test system: mechanism of active transport through the intestine wall

Cc1ncc(C[n+]2csc(CCO)c2C)c(N)n1 [thiamine]
concentration above which the active transport of intestinal absorption reaches saturation: higher than 2 μM
